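Exposure lasted 48 hours, with cells grown in 96-well plates and compounds tested at five concentrations. At the GI50, growth is halved. At the TGI there is no net growth.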
How the values were obtained:
Assay in all cases: NCI anticancer screen, dose series, 48 h
ACHN renal = system: ACHN renal
HCT-116 colon = system: HCT-116 colon
HCT-15 colon = system: HCT-15 colon
MOLT-4 leukemia = system: MOLT-4 leukemia
OVCAR-3 ovarian = system: OVCAR-3 ovarian
PC-3 prostate = system: PC-3 prostate
SF-295 CNS = system: SF-295 CNS
SK-MEL-28 melanoma = system: SK-MEL-28 melanoma
SNB-75 CNS = system: SNB-75 CNS
UACC-62 melanoma = system: UACC-62 melanoma

## CC1(C)N=C(N)N=C(N)N1c1ccc(CCCCc2ccc(S(=O)(=O)F)cc2Cl)c(Cl)c1
ACHN renal
  TGI: 142 µM
HCT-116 colon
  TGI: 140 µM
HCT-15 colon
  TGI: 193 µM
MOLT-4 leukemia
  TGI: 10.6 µM
OVCAR-3 ovarian
  TGI: 87 µM
PC-3 prostate
  TGI: 112 µM
SF-295 CNS
  TGI: 192 µM
SK-MEL-28 melanoma
  TGI: 13.4 µM
SNB-75 CNS
  TGI: 54.7 µM
UACC-62 melanoma
  TGI: 46.9 µM

## O=C1CSC(N2CCN(c3cccc(Cl)c3)CC2)=N1
ACHN renal
  GI50: > 100 µM
  TGI: > 100 µM
HCT-116 colon
  GI50: > 100 µM
  TGI: > 100 µM
HCT-15 colon
  GI50: > 100 µM
  TGI: > 100 µM
MOLT-4 leukemia
  GI50: > 100 µM
  TGI: > 100 µM
OVCAR-3 ovarian
  GI50: > 100 µM
  TGI: > 100 µM
PC-3 prostate
  GI50: > 100 µM
  TGI: > 100 µM
SF-295 CNS
  GI50: > 100 µM
  TGI: > 100 µM
SK-MEL-28 melanoma
  GI50: > 100 µM
  TGI: > 100 µM
SNB-75 CNS
  GI50: 84.9 µM
  TGI: > 100 µM
UACC-62 melanoma
  GI50: > 100 µM
  TGI: > 100 µM

## CCOc1ccc2nc(NC(=O)/C(CC(=O)CC(C3=C(O)c4ccccc4CC3=O)c3ccccc3)=N\O)sc2c1 (stereo not drawn)
ACHN renal
  TGI: > 100 µM
HCT-116 colon
  TGI: > 100 µM
HCT-15 colon
  TGI: > 100 µM
MOLT-4 leukemia
  TGI: > 100 µM
OVCAR-3 ovarian
  TGI: > 100 µM
PC-3 prostate
  TGI: > 100 µM
SF-295 CNS
  TGI: > 100 µM
SK-MEL-28 melanoma
  TGI: > 100 µM
SNB-75 CNS
  TGI: > 100 µM
UACC-62 melanoma
  TGI: > 100 µM

## CC1=C2[C@@H](CC1)[C@]1(C)O[C@@](C(C)C)(C[C@H]1OC(=O)[C@H](C)O)[C@H]2OC(=O)/C=C/c1ccccc1
ACHN renal
  GI50: 0.145 µM
  TGI: 13 µM
HCT-116 colon
  GI50: 13.4 µM
  TGI: 29.2 µM
HCT-15 colon
  GI50: 11.2 µM
  TGI: 25.4 µM
MOLT-4 leukemia
  GI50: 10.7 µM
  TGI: 32 µM
OVCAR-3 ovarian
  GI50: 12.5 µM
  TGI: 26.1 µM
PC-3 prostate
  GI50: 4.46 µM
  TGI: 19.1 µM
SF-295 CNS
  GI50: 11.5 µM
  TGI: 24.8 µM
SK-MEL-28 melanoma
  GI50: 16.5 µM
  TGI: 34.3 µM
SNB-75 CNS
  GI50: 19.2 µM
  TGI: 51.2 µM
UACC-62 melanoma
  GI50: 12.2 µM
  TGI: 27.4 µM

## CN=C1NC(=O)/C(=C/c2ccc3ncccc3c2)S1
ACHN renal
  GI50: 6.77 µM
  TGI: > 25 µM
HCT-116 colon
  GI50: 5.29 µM
  TGI: > 25 µM
HCT-15 colon
  GI50: 6.09 µM
  TGI: > 25 µM
MOLT-4 leukemia
  GI50: 11.2 µM
  TGI: > 25 µM
OVCAR-3 ovarian
  GI50: 9.11 µM
  TGI: > 25 µM
PC-3 prostate
  GI50: 13.8 µM
  TGI: > 25 µM
SF-295 CNS
  GI50: 7.97 µM
  TGI: > 25 µM
SK-MEL-28 melanoma
  GI50: 10.5 µM
  TGI: > 25 µM
SNB-75 CNS
  GI50: 3.8 µM
  TGI: > 21.2 µM
UACC-62 melanoma
  GI50: 8.31 µM
  TGI: > 25 µM

## Cn1cc(C2=C(c3ccc(OC[C@@H](O)CO)cc3)C(=O)NC2=O)c2ccccc21
ACHN renal
  GI50: > 25 µM
  TGI: > 25 µM
HCT-116 colon
  GI50: > 25 µM
  TGI: > 25 µM
HCT-15 colon
  GI50: > 25 µM
  TGI: > 25 µM
MOLT-4 leukemia
  GI50: > 25 µM
  TGI: > 25 µM
OVCAR-3 ovarian
  GI50: > 25 µM
  TGI: > 25 µM
PC-3 prostate
  GI50: > 25 µM
  TGI: > 25 µM
SF-295 CNS
  GI50: > 25 µM
  TGI: > 25 µM
SK-MEL-28 melanoma
  GI50: > 25 µM
  TGI: > 25 µM
SNB-75 CNS
  GI50: 2.23 µM
  TGI: > 25 µM
UACC-62 melanoma
  GI50: > 25 µM
  TGI: > 25 µM

## NNC(=O)c1cnn(-c2ccnc3c(C(F)(F)F)cccc23)c1N
ACHN renal
  GI50: > 100 µM
  TGI: > 100 µM
HCT-116 colon
  GI50: > 100 µM
  TGI: > 100 µM
HCT-15 colon
  GI50: > 100 µM
  TGI: > 100 µM
MOLT-4 leukemia
  GI50: > 100 µM
  TGI: > 100 µM
OVCAR-3 ovarian
  GI50: > 100 µM
  TGI: > 100 µM
PC-3 prostate
  GI50: > 100 µM
  TGI: > 100 µM
SF-295 CNS
  GI50: > 100 µM
  TGI: > 100 µM
SK-MEL-28 melanoma
  GI50: > 100 µM
  TGI: > 100 µM
SNB-75 CNS
  GI50: 99.7 µM
  TGI: > 100 µM
UACC-62 melanoma
  GI50: > 100 µM
  TGI: > 100 µM

## COc1ccccc1NC(=O)c1ccc(/C=C/C(=O)c2nccn2C)cc1
ACHN renal
  GI50: 0.532 µM
  TGI: 1.09 µM
HCT-116 colon
  GI50: 0.408 µM
  TGI: 0.89 µM
HCT-15 colon
  GI50: 0.363 µM
  TGI: 0.843 µM
MOLT-4 leukemia
  GI50: 0.711 µM
  TGI: 2.22 µM
OVCAR-3 ovarian
  GI50: 0.459 µM
  TGI: 0.988 µM
PC-3 prostate
  GI50: 0.628 µM
  TGI: 1.65 µM
SF-295 CNS
  GI50: 0.658 µM
  TGI: 1.76 µM
SK-MEL-28 melanoma
  GI50: 0.57 µM
  TGI: 1.44 µM
SNB-75 CNS
  GI50: 0.342 µM
  TGI: 1.09 µM
UACC-62 melanoma
  GI50: 0.472 µM
  TGI: 0.986 µM

## NS(=O)(=O)c1ccc(-n2nc(-c3ccc(Br)cc3)ccc2=O)cc1
ACHN renal
  GI50: > 10 µM
  TGI: > 10 µM
HCT-116 colon
  GI50: > 10 µM
  TGI: > 10 µM
HCT-15 colon
  GI50: > 10 µM
  TGI: > 10 µM
MOLT-4 leukemia
  GI50: > 10 µM
  TGI: > 10 µM
OVCAR-3 ovarian
  GI50: > 10 µM
  TGI: > 10 µM
PC-3 prostate
  GI50: > 10 µM
  TGI: > 10 µM
SF-295 CNS
  GI50: > 10 µM
  TGI: > 10 µM
SK-MEL-28 melanoma
  GI50: > 10 µM
  TGI: > 10 µM
SNB-75 CNS
  GI50: > 10 µM
  TGI: > 10 µM
UACC-62 melanoma
  GI50: > 10 µM
  TGI: > 10 µM

## CC[n+]1ccc2c(c1)C(=O)c1nccc3c1c-2nc1ccccc13
ACHN renal
  GI50: 1.13 µM
  TGI: > 15.5 µM
HCT-116 colon
  GI50: 1.1 µM
  TGI: 7.18 µM
HCT-15 colon
  GI50: 2.86 µM
  TGI: > 33.3 µM
MOLT-4 leukemia
  GI50: 1.27 µM
  TGI: 7.31 µM
OVCAR-3 ovarian
  GI50: 0.783 µM
  TGI: 2.92 µM
PC-3 prostate
  GI50: 1.81 µM
  TGI: 16.2 µM
SF-295 CNS
  GI50: 0.634 µM
  TGI: 3.76 µM
SK-MEL-28 melanoma
  GI50: 1.84 µM
  TGI: 7.64 µM
SNB-75 CNS
  GI50: 0.678 µM
  TGI: 2.56 µM
UACC-62 melanoma
  GI50: 0.763 µM
  TGI: 2.52 µM

## CC(=O)c1ccc(N(/C=C/C(=O)C(F)(F)F)CC(=O)c2ccc(Cl)c(Cl)c2)cc1
ACHN renal
  GI50: 14.4 µM
  TGI: 27.7 µM
HCT-116 colon
  GI50: 13.4 µM
  TGI: 26.2 µM
HCT-15 colon
  GI50: 13.4 µM
  TGI: 29.2 µM
MOLT-4 leukemia
  GI50: 4.18 µM
  TGI: 27.2 µM
OVCAR-3 ovarian
  GI50: 13.9 µM
  TGI: 27.5 µM
PC-3 prostate
  GI50: 11.5 µM
  TGI: 30.2 µM
SF-295 CNS
  GI50: 12.3 µM
  TGI: 26.2 µM
SK-MEL-28 melanoma
  GI50: 16.5 µM
  TGI: 40.7 µM
SNB-75 CNS
  GI50: 18 µM
  TGI: 38.3 µM
UACC-62 melanoma
  GI50: 7.01 µM
  TGI: 19.8 µM

## O=C1c2ccccc2C(=O)c2c1ccc1[nH]c(CCl)nc21
ACHN renal
  GI50: 2.27 µM
  TGI: 6.49 µM
HCT-116 colon
  GI50: 1.85 µM
  TGI: 4.7 µM
HCT-15 colon
  GI50: 1.45 µM
  TGI: 3.1 µM
MOLT-4 leukemia
  GI50: 1.68 µM
  TGI: 8.04 µM
OVCAR-3 ovarian
  GI50: 1.64 µM
  TGI: 3.03 µM
PC-3 prostate
  GI50: 2.23 µM
  TGI: 7.01 µM
SF-295 CNS
  GI50: 7.99 µM
  TGI: 20.6 µM
SK-MEL-28 melanoma
  GI50: 6.58 µM
  TGI: 18.8 µM
SNB-75 CNS
  GI50: 1.56 µM
  TGI: 10.8 µM
UACC-62 melanoma
  GI50: 2.06 µM
  TGI: 4.99 µM

## Cc1c(N2C(=O)/C(=C\c3ccccc3O)N=C2c2ccccc2)c(=O)n(-c2ccccc2)n1C
ACHN renal
  GI50: 53.8 µM
  TGI: > 100 µM
HCT-116 colon
  GI50: 51.6 µM
  TGI: > 100 µM
HCT-15 colon
  GI50: > 100 µM
  TGI: > 100 µM
OVCAR-3 ovarian
  GI50: > 100 µM
  TGI: > 100 µM
PC-3 prostate
  GI50: > 100 µM
  TGI: > 100 µM
SF-295 CNS
  GI50: 26.2 µM
  TGI: 78.6 µM
SK-MEL-28 melanoma
  GI50: > 100 µM
  TGI: > 100 µM
SNB-75 CNS
  GI50: 15.7 µM
  TGI: 40.3 µM
UACC-62 melanoma
  GI50: 53.9 µM
  TGI: > 100 µM

— PubChem BioAssay (NCI)
